{"source": "patent US12377092B2", "about": "“Polycomb inhibitors and uses thereof” (FONDAZIONE ISTITUTO FIRC DI ONCOLOGIA MOLECOLARE (IFOM), priority 2017, dated 2025)", "key": {"VE-cadherin": {"test_system": "VE-cadherin", "test": "Western blot analysis of VE-cadherin, CCM3 knock out cells", "type": "cell-based, mouse", "conditions": "72 hours", "experimental": "(§1) Cells were seeded 6.3×10^4 cells/cm^2. The day after, PTC209 and UNC1999 were added to the confluent cells. Drugs were left for one or three days depending on the aim of the experiment. Final concentrations used for the two drugs were: 1 uM PTC209 and 5 uM UNC1999.\nConfluent cells were lysed with boiling modified Laemi sample Buffer (2% SDS, 20% glycerol, and 125 mM Tris-HCl, pH 6.8). Lysates were incubated for 10 minutes at 100° C. to allow proteins denaturation. Protein concentration was estimated using the BCA Protein Assay Kit (Pierce). Equal amount of proteins was loaded on a gel, separated by SDS-PAGE and transferred to a Protran Nitrocellulose Membrane (Whatman) 0.2 um pores. The membranes were blocked for 1 hour at RT in Tris Buffered Saline (TBS: NaCl 150 mM, Tris-HCl 10 mM pH 7.4) plus 0.1% Tween-20 containing 5% BSA or milk. […] Membranes were rinsed three times with TBST for 5 minutes each and specific bindings were detected by enhanced chemiluminescence (ECL) system (Amersham Bioscience) using ChemiDoc XRS gel imaging system (Bio-Rad).\nExperiment with combined PTC209 and UNC1999 treatments was repeated with the same experimental conditions described before and junction organisation was analysed through VE-cadherin staining and protein expression analysis (FIG. 19)."}, "PRC2": {"test_system": "PRC2", "conditions": "Konze et al., 2013; cited from earlier work"}, "[1]": {"test_system": "EndMT markers (Klf4, Sca1 and Fsp1)", "test": "Western blot analysis of EndMT markers, wild type and CCM3 knock out immortalized lung endothelial cells", "type": "cell-based, mouse", "conditions": "72 hours", "experimental": "as §1\nConfluent cells were lysed with boiling modified Laemi sample Buffer (2% SDS, 20% glycerol, and 125 mM Tris-HCl, pH 6.8). Lysates were incubated for 10 minutes at 100° C. to allow proteins denaturation. Protein concentration was estimated using the BCA Protein Assay Kit (Pierce). Equal amount of proteins was loaded on a gel, separated by SDS-PAGE and transferred to a Protran Nitrocellulose Membrane (Whatman) 0.2 um pores. The membranes were blocked for 1 hour at RT in Tris Buffered Saline (TBS: NaCl 150 mM, Tris-HCl 10 mM pH 7.4) plus 0.1% Tween-20 containing 5% BSA or milk. The membranes were incubated with primary antibodies diluted in TBST (TBS plus 0.1% Tween-20) containing 5% of either BSA or milk overnight at 4° C. Next, membranes were rinsed three times with TBST for 5 minutes each and incubated for 45 minutes at RT with HRP-linked secondary antibodies diluted in TBST containing 5% BSA/milk. Membranes were rinsed three times with TBST for 5 minutes each and specific bindings were detected by enhanced chemiluminescence (ECL) system (Amersham Bioscience) using ChemiDoc XRS gel imaging system (Bio-Rad).\n(§2) Wild type and CCM3 knock out cells were treated with either PTC209 or DMSO starting from the day after seeding, when cells were confluent. For this experiment cells were lysed for western blot and real-time analysis after 72 hours of treatment to check a long-term effect of PTC209.\n(§3) To perform these experiments, immortalized lung endothelial cells both wild type and CCM3 knock out were treated, with the same experimental strategy used for PTC209, with UNC1999 for 72 hours and subsequently lysed for western blot and real time analysis. UNC1999 was used in its specific optimal concentration, which was different to PTC209. As control DMSO was given to the cells in a volume equal to the volume of DMSO in which UNC1999 was previously dissolved to rich the optimal concentration.\n(§4) Briefly, wild type and CCM3 knock out cells were treated with either PTC209, UNC1999 or a combination of the two. PTC209 and UNC1999 were administrated at the same concentration used for the single treatment and DMSO was given as control in a volume equal to the sum of volumes of DMSO in which UNC1999 and PTC209 were previously dissolved."}, "[2]": {"test_system": "EndMT markers (Klf4, Sca1 and Fsp1)", "test": "Real time (RT-PCR) analysis of EndMT markers, wild type and CCM3 knock out immortalized lung endothelial cells", "type": "cell-based, mouse", "conditions": "72 hours", "experimental": "as §1\nRNA extraction was performed both with (A) RNeasy kits (Promega) or (B) RNAeasy Mini Kit (QIAGEN). The latter allows also the extraction of proteins from the same sample. The RNA (500 ng) was reverse transcribed with random hexamers (High Capacity cDNA Archive kits; Applied Biosystems) in a final volume of 30 uL. Reaction were made with a thermocycler (Eppendorf) 10 min at 25° C. followed by 2 hours at 37° C. cDNA (5 ng) was amplified in triplicate in a reaction volume of 15 uL using TaqMan Gene Expression Assays (Applied Biosystems) in a ABI/Prism 7900 HT using a pre PCR step of 10 min at 95° C., followed by 40 cycles of 15 seconds at 95° C. and 60 seconds at 60° C. For each sample, the expression level was determined with the comparative threshold cycle (Ct) method, and normalized to the housekeeping genes encoding 18S, glyceraldehyde-3-phosphate dehydrogenase (GAPDH) and hypoxanthine-guanine phosphoribosyltransferase (hprt1). Ct or threshold cycle, represents the PCR cycle at which an increase in reporter fluorescence above a base-line signal can first be detect.\nas §2, §3, §4"}, "[3]": {"conditions": "CCM3 knock out cells, 1 uM PTC209, 5 uM UNC1999, vs DMSO"}, "[4]": {"conditions": "wild type cells (physiological condition), CCM3 model"}}, "note": "“Also recorded” adds a separate entry of the source.", "data": [{"smiles": "CCCc1cc(C)[nH]c(=O)c1CNC(=O)c1cc(-c2ccc(N3CCN(C(C)C)CC3)nc2)cc2c1cnn2C(C)C", "note": "[UNC1999, N-[(6-methyl-2-oxo-4-propyl-1H-pyridin-3-yl)methyl]-1-propan-2-yl-6-[6-(4-propan-2-ylpiperazin-1-yl)pyridin-3-yl]indazole-4-carboxamide]", "values": [{"measurement": "VE-cadherin protein expression level (western blot)", "setting": "VE-cadherin", "value": "did not show any rescue"}, {"measurement": "Hystone-methyl transferase activity of PRC2", "setting": "PRC2", "value": "blocked"}, {"measurement": "EndMT markers (Klf4, Sca1, Fsp1) protein expression (western blot)", "setting": "[1]; [3]", "value": "downregulation; also recorded: inhibition of the upregulation"}, {"measurement": "downregulation of EndMT protein and gene expressions compared with PTC209", "setting": "[1]; CCM3 knock out cells, 5 uM UNC1999, western blot and real time", "value": "not as strong as the downregulation observed upon administration of PTC209"}, {"measurement": "Klf4 protein (western blot)", "setting": "[1]; [4]", "value": "not influenced"}, {"measurement": "Klf4, Sca1 and Fsp1 transcripts (real time analysis)", "setting": "[2]; [3]", "value": "downregulation"}, {"measurement": "Klf4 transcript (real time analysis)", "setting": "[2]; [4]", "value": "not influenced"}]}]}
